Here are results for 6 molecules from US20090270453A1, “ANTI-MANIC EFFECTIVE DOSES OF SERTINDOLE” (priority 2007, published 2009).

The subject of assay [1] is AMPH+CDP induced locomotor activity. To be noted: rats; Lamberty, et al. 2001; cited from earlier work.
Assay [2] deals with sensitized response to an acute AMPH challenge. To be noted: mice; Husum 2005, poster no. 32.06; cited from earlier work.
The test system is the same in assay [3]. Nature of the assay: Sensitized AMPH response model (induced hyperactivity). Type of assay: in vivo, Male Crl:NMRI mice. To be noted: for effect on AMPH induced hyperactivity in sensitized mice: s.c. pre-treatment, about 30 min recording. On the procedure: (§1) Subjects: Male Crl:NMRI mice (about 20 g) were at the animal facility about 5 days prior to the start of the experiment and were housed in climate-controlled animal facilities under normal light-dark cycle (lights on about 06:00 to about 18:00). The mice were kept 6 per cage and allowed enrichment (two plastic houses+nesting material).
(§2) Drugs: All compounds were administered subcutaneously and are listed as free base doses. The mice were pre-treated with either d-amphetamine (about 1.8 mg/kg) or vehicle (about 0.9% NaCl, about 10 ml/kg) once daily for five consecutive days.
Test procedure: About 17-19 days after the pre-treatment, the animals were treated with test substance or vehicle and individually placed to habituate for about 30 min in motility boxes (about 20×about 32 cm) equipped with about 5×about 8 light sources and infrared cells spaced by about 4 cm. The light beams crossed the cage 1.8 cm above the bottom of the cage. Recording of a motility count requires interruption of adjacent light beams, thus avoiding counts induced by stationary movements of the mice. After habituation, an acute dose of d-amphetamine (about 0.95 mg/kg) or vehicle was administered and data acquisition was begun and lasted for about 30 min.
Data Analysis: Data were averaged within the groups (n=12) and are presented as mean±SD. The acute effect of test substance against the sensitized response to amphetamine was statistically evaluated by one-way ANOVA of variance: Dunn's method was applied for post hoc testing against the sensitized group receiving […]

Assay [4] concerns baseline locomotor activity of control rats. Nature of the assay: Baseline locomotor activity of control rats in locomotor box. Type of assay: in vivo, Male Wistar rats. To be noted: for Average Crossings in % (SEM): % of control group set to 100%; for effect on baseline (basal) locomotor activity: locomotor box about 2 hours, administered doses. The method, then: (§3) Subjects: Male Wistar rats weighing about 150-200 g were housed 2-4 rats per cage in makrolon cages (about 20×about 35 cm) equipped with sawdust and with one plastic house for enrichment. The animals were kept at room temperature (about 20° C.±2) in about 12-hour light/dark cycle (lights on at about 06:00) with free access to food and tap water. The rats were allowed to acclimatize to the animal facility premises for about 5-9 days prior to the initiation of experiments. The animals were taken to the experimental room on the day before the experiment and weighed.
(§4) Test procedure: For the assessment of locomotor activity, makrolon cages (about 20×about 35 cm) with a thin layer of standard bedding material were placed in a U-frame equipped longitudinally with 4 infrared light sources and photocells placed about 4 cm above the bottom of the cage. All experiments were conducted under normal light conditions. The animals were placed individually in test boxes and the assessment of locomotor activity was immediately begun. During the test session, locomotor activity was recorded as crossings of infrared light beams and total locomotor activity was the accumulated number of crossings over the approximately 120-min period. The recording of a motility count required the crossing of two adjacent light beams, thus avoiding counts induced by stationary movements of the rat.
Statistical analysis of differences in total locomotor activity (normalized data) among the various treatment groups was carried out using a two-way ANOVA with factors treatment (AMPH+CDP vs. vehicle) and drug (drug vs. vehicle). In case of a significant interaction, a post hoc Student-Newman-Keuls Method was used for multiple comparisons. A probability level of 0.05 was considered significant.

Assay [5] concerns AMPH+CDP induced locomotor activity. Nature of the assay: Sensitized AMPH+CDP response model (induced locomotor hyperactivity). Type of assay: in vivo, Male Wistar rats. The conditions noted are these: for effect on AMPH+CDP induced locomotor activity (hyperactivity): rats, s.c. pre-treatment, about 120 min test-period. On the procedure: as §3
Drugs: All drugs are listed as mg free base/kg with the exception of lithium (mEq/kg). Drug solutions were titrated into a pH range of about 4.5-7.0 for subcutaneous (s.c.) administration. To induce hyperactivity, amphetamine sulphate (about 0.9 mg/kg in about 0.9% NaCl, about 1 ml/kg) followed by CDP (7-Chloro-2-(methylmino)-5-phenyl-3h-1,4-benzodiazepine-4-oxide, about 8.9 mg/kg in about 10% hydroxypropyl-beta-cyclodextrin) was administrated about 35 minutes before the test. A parallel set of control animal received two vehicle injections. Lithium chloride (about 0.2-0.9 mEq/kg) was dissolved in distilled water isosmotically supplemented with NaCl, and administrated about 210 minutes before testing. Lamotrigine (6-(2,3-Dichloro-phenyl)-[1,2,4]-triazine-3,5-diamine, about 2.5-80 mg/kg) was dissolved in about 10% hydroxypropyl-beta-cyclodextrin and administrated about 30 minutes before the test.
as §4
Data Analysis: The average total basal locomotor activity of the control groups in the different experiments varied between 322-516 light beam crossings (see Table 1). Due to this variation, the results in each experiment were normalized to percentage activity relative to the average total locomotor activity of control group that was set as 100%. Statistical analysis of differences in total locomotor activity (normalized data) among the various treatment groups was carried out using a two-way ANOVA with factors treatment (AMPH+CDP vs. vehicle) and drug (drug vs. vehicle). In case of a significant interaction, a post hoc Student-Newman-Keuls Method was used for multiple comparisons. A probability level of 0.05 was considered significant.
Crossings of light-beams as a measure of locomotor activity over about a 120 min test-period is shown as percentage of the control group-level that is set to 100%. The bars show the mean±SEM for each group and the dots show the activity of individual rats (n=10-12). Administration of amphetamine (about 0.9 mg/kg, s.c.) and chlordiazepoxide (about 8.9 mg/kg, s.c.) produced a significant increase in locomotor activity (***p<0.001 vs. control group (O) in all experiments).

Another assay concerns α1-adrenergic receptors. The conditions noted are these: Sanchez et al. 1991; Arnt and Skarsfeldt 1998; cited from earlier work.
In a further assay the test system is saline activity. Nature of the assay: Activity of saline (non-AMPH) mice in the sensitized AMPH response model. It is filed as in vivo, Male Crl:NMRI mice. To be noted: sertindole about 0.63 mg/kg. On the procedure: as §1, §2
Test procedure: About 17-19 days after the pre-treatment, the animals were treated with test substance or vehicle and individually placed to habituate for about 30 min in motility boxes (about 20×about 32 cm) equipped with about 5×about 8 light sources and infrared cells spaced by about 4 cm. The light beams crossed the cage 1.8 cm above the bottom of the cage. […]
Data Analysis: Data were averaged within the groups (n=12) and are presented as mean±SD. The acute effect of test substance against the sensitized response to amphetamine was statistically evaluated by one-way ANOVA of variance: Dunn's method was applied for post hoc testing against the sensitized group receiving (NaCl, about 1 ml/kg) followed by CDP (about 8.9 mg/kg in 10% hydroxypropyl-beta-cyclodextrin) was administrated about 35 minutes before the test. […]

In another assay the target is dopamine D2 (Homo sapiens, UniProt P14416). To be noted: Sanchez et al. 1991; Arnt and Skarsfeldt 1998; cited from earlier work.
The subject of the next assay is serotonin 5-HT2. To be noted: Sanchez et al. 1991; Arnt and Skarsfeldt 1998; cited from earlier work.
A further assay relates to schizophrenic patients. The conditions noted are these: human clinical studies; Daniel D, et al. 1995; cited from earlier work.

Entries after “also recorded” stand apart in the source; their conditions may differ.

Sequence of dopamine D2 (P14416 whole entry): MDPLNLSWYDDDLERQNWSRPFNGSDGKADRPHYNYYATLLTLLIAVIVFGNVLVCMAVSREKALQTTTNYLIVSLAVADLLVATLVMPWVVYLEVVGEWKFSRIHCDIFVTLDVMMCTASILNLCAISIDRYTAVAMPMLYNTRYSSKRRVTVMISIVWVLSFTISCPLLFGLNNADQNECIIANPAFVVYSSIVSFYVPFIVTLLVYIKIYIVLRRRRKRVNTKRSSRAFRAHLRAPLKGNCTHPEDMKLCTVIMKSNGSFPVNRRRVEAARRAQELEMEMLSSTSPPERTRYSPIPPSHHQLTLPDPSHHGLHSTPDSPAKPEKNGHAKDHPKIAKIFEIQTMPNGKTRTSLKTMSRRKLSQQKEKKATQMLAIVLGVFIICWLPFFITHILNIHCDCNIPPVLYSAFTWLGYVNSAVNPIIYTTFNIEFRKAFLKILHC

For `NC(=O)N1c2ccccc2C=Cc2ccccc21` [carbamazepine], in [1], the “effectiveness in the AMPH+CDP induced hyperactivity model” value is recorded as “effective”. The “effect on the sensitized response to an acute AMPH challenge” value (“effect on the sensitized response” below) in assay [2] is “dose-dependently abolish; also recorded: reversed the effect of acute AMPH administration”.

Regarding `CN(C)CCCC1(c2ccc(F)cc2)OCc2cc(C#N)ccc21` (centres unmarked) [citalopram], the “effect on AMPH induced hyperactivity in sensitized mice” value in [3] is “no effect”; in assay [3] (listed as Citalopram), “inactive”. Besides, the “Average Crossings in % (SEM)” value in assay [4] (0.8 mg/kg) is listed as 71.0%. In [4], the “effect on baseline (basal) locomotor activity” value (shortened to “effect on baseline”) was “no significant effect”.

On to `O=C(CCCN1CCC(O)(c2ccc(Cl)cc2)CC1)c1ccc(F)cc1` [haloperidol], for which, in [2], the “effect on the sensitized response” value is on record as “reversed the effect of acute AMPH administration”.

In the case of `Nc1nnc(-c2cccc(Cl)c2Cl)c(N)n1` [lamotrigine, 6-(2,3-Dichloro-phenyl)-[1,2,4]-triazine-3,5-diamine], the “effect on the sensitized response” value in assay [2] is given as “dose-dependently abolish; also recorded: reversed the effect of acute AMPH administration”. The “significance of reduction of AMPH+CDP induced locomotor activity” value is on record as “significant” in assay [5] (lamotrigine about 20 mg/kg, about 30 min s.c. pre-treatment); “significantly counteracted” in [5] (lamotrigine about 20 mg/kg, about 30 min s.c. pre-treatment, listed as Lamotrigine); “significant” in [5] (lamotrigine about 40 mg/kg, about 30 min s.c. pre-treatment); “significantly counteracted” in assay [5] (lamotrigine about 40 mg/kg, about 30 min s.c. pre-treatment, listed as Lamotrigine); “significant” in assay [5] (lamotrigine about 80 mg/kg, about 30 min s.c. pre-treatment); “significantly counteracted” in assay [5] (lamotrigine about 80 mg/kg, about 30 min s.c. pre-treatment, listed as Lamotrigine). The “effect on AMPH+CDP induced locomotor activity (hyperactivity)” value in assay [5] is “significantly reduced; also recorded: reduced the induced locomotor activity”; in assay [5] (listed as Lamotrigine) it was “significantly and dose-dependently decreased”. Moreover, the “Average Crossings in % (SEM)” value in [4] (2.5 mg/kg) came to 114.5%; in [4] (10 mg/kg) it was 107.9%; in assay [4] (20 mg/kg), 97.2%; in assay [4] (40 mg/kg) it was 82.0%; in assay [4] (80 mg/kg), 83.0%. Besides, the “effect on baseline” value in [4] was “not reduced; also recorded: no significant effect”.

With `O=C1NCCN1CCN1CCC(c2cn(-c3ccc(F)cc3)c3ccc(Cl)cc23)CC1` [sertindole], the “affinity for α1-adrenergic receptors” value with α1-adrenergic receptors is recorded as “high affinity”. Besides, the “effect on saline activity” value in the assay on saline activity is reported as “significantly decreased the saline activity”. Also, at dopamine D2, the “affinity for dopamine D2” value is listed as “high affinity”. Besides, the “affinity for serotonin 5-HT2” value with serotonin 5-HT2 is reported as “high affinity”. Further, the “effect on AMPH induced hyperactivity in sensitized mice” value in assay [3] was “reversed the induced hyperactivity; also recorded: significantly decreased; also recorded: active”. Further, in assay [3] (sertindole 0.16 mg/kg), the “effect on induced hyperactivity” value is “significantly reversed the induced hyperactivity”. Moreover, the “doses effective to treat schizophrenic patients” value with schizophrenic patients is 12 to 24 mg/day. In addition, the “effect on AMPH+CDP induced locomotor activity (hyperactivity)” value in assay [5] is reported as “reduced the induced locomotor activity; also recorded: significantly decreased; also recorded: active”. Also, the “significance of reduction of AMPH+CDP induced locomotor activity” value in assay [5] (sertindole about 0.16 mg/kg, about 120 min s.c. pre-treatment) was “significant”; in assay [5] (sertindole about 1.25 mg/kg, about 120 min s.c. pre-treatment), “significant”. Further, the results for the “Average Crossings in % (SEM)” value in assay [4] (0.02 mg/kg), in [4] (0.16 mg/kg) and in assay [4] (1.25 mg/kg) were 116.7%, 119.9% and 132.4%, respectively. Further, the “effect on baseline” value in [4] was “no significant effect”.

For `CCCC(CCC)C(=O)O` [valproate], the “effectiveness in the AMPH+CDP induced hyperactivity model” value in assay [1] is “effective”. Moreover, the “effect on the sensitized response” value in assay [2] is reported as “dose-dependently abolish; also recorded: reversed the effect of acute AMPH administration”.
